Data as given in ChEMBL document CHEMBL2086348, “Amide-based derivatives of β-alanine hydroxamic acid as histone deacetylase inhibitors: attenuation of potency through resonance effects” (Bioorg Med Chem Lett, 2012).

Assays:
Histone deacetylase 1 [1] = biological target: T1, Histone deacetylase 1 (Homo sapiens, UniProt Q13547); assay: Inhibition of HDAC1 at 250 uM by fluorometric assay
[2] = Antiproliferative activity against human BE(2)-C cells at 50 uM after 72 hrs by Alamar blue assay; format: functional
Histone deacetylase 1 [3] = biological target: T1, Histone deacetylase 1; assay: Inhibition of HDAC1 by fluorometric assay
[4] = Antiproliferative activity against human BE(2)-C cells after 72 hrs by Alamar blue assay; format: functional, cell-based
[5] = biological target: Histone deacetylase (Homo sapiens) (UniProt Q13547+O15379+Q9UBN7+Q92769+Q9UQL6+Q8WUI4+Q9BY41+Q96DB2+P56524+Q9UKV0+Q969S8); assay: Inhibition of HDAC in human HeLa cell extracts at 1 uM; format: protein assay

T1 sequence (Q13547 whole entry): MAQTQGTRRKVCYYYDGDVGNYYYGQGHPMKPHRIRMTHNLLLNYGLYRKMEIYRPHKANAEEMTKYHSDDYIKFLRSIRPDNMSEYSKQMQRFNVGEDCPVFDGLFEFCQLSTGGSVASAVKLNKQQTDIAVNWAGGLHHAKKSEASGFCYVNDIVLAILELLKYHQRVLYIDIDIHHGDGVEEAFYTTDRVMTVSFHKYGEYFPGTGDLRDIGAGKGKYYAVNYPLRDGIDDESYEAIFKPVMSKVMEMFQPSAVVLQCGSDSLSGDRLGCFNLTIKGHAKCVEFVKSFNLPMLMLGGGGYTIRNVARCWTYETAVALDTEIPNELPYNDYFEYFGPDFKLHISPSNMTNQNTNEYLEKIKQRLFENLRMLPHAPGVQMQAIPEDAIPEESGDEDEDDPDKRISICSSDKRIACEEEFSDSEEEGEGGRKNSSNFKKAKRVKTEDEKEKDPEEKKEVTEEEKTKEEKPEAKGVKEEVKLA

Structure (SMILES) | inhibition (Histone deacetylase 1 [1]) [%] | IC50 (Histone deacetylase 1 [3]) [µM] | inhibition [5] [%] | Activity [2] [%] | IC70 [4] [µM]
CC(/C=C/C(=O)NO)=C\[C@@H](C)C(=O)c1ccc(N(C)C)cc1 [TRICHOSTATIN] |  |  |  |  | 0.05
Cc1ccc(OCC(=O)NCCC(=O)NO)cc1 |  | 84 |  | 80.4 | 
O=C(CCNC(=O)Cc1ccc([N+](=O)[O-])cc1)NO |  | 39.4 |  | 87.9 | 
O=C(/C=C/c1ccccc1)NCCC(=O)NO |  | 67 | 19 | 88.6 | 

Continued, in another order:

inhibition (Histone deacetylase 1 [1]) [%] | IC50 (Histone deacetylase 1 [3]) [µM] | inhibition [5] [%] | Structure (SMILES) | Activity [2] [%] | IC70 [4] [µM]
40 | > 250 |  | CN(C)c1ccc(/C=C/C(=O)NCCC(=O)NO)cc1 | 57 | 
 | 38 |  | CN(C)c1ccc(CC(=O)NCCC(=O)NO)cc1 | 62.8 | 
 | 80 |  | Cc1ccc(CCC(=O)NCCC(=O)NO)cc1 | 72.4 | 
